From article PMC6891695, “Evaluation of Antifouling Potential and Ecotoxicity of Secondary Metabolites Derived from Red Algae of the Genus Laurencia” (Marine Drugs, 2019)
Where two headings read alike, the source gives them in different places.

Columns and labels:
in vivo = type: in vivo; conditions: Amphibalanus amphitrite, in vivo, read-out: LC50 Mortality; for LC50 at 24 h: 24 h exposure; for LC50 at 48 h: 48 h exposure; for LC50 at 72 h: 72 h exposure
Description: (§1) Adult A. amphitrite (Cirripedia, Balanidae) were collected from boat docks at Port Mikrolimano and Floisvos, Athens, Greece. Animals were cleaned of epibionts with a small hard brush and meticulously identified as individuals of the species. Adult barnacles were kept in separate aerated glass tanks (20 L) containing 200-μm filtered natural seawater at 27 °C and a 12:12 L:D photoperiod. Tanks were fed with 24-h hatched Artemia sp. (Branchiopoda) nauplii and Tetraselmis suecica (Chlorodendrophyceae) and Skeletonema costatum (Bacillariophyceae) algae each day and seawater was changed on alternate days. Upon stress to induce oviposition (exposure to air for 24 h or immersion in fresh water for 5 h), adults were returned to seawater for larval release. Hatched nauplii were attracted to a point light source, collected and placed into a beaker containing 2 or 3 L of 0.7 μm GF/F (GE Healthcare, Little Chalfont, UK )-filtered natural seawater at a density of approximately 1–2 nauplii/mL with gentle aeration. Nauplii were maintained at 27 °C at a 12:12 L:D photoperiod on a diet of C. gracilis (Bacillariophyceae) provided at a density of 2 × 10^5 cells/mL. Cultured in these conditions, nauplii metamorphosed to cyprids in 5 days. Aliquots of these cyprids were collected with a wide-mouthed Pasteur pipette and aged at 4 °C for 1 day prior to use in settlement assays. Only batches of cyprids that were active and had numerous oil cells, representing energy reserves, were used in settlement assays.
(§2) Assays were conducted by adding 10 cyprids into individual wells of a 24-well polystyrene sterile microplate (Orange Scientific, Braine l’Alleud, Belgium) with 2 mL of artificial sea water (ASW) (25‰) and various concentrations of the chemical compounds as listed in Table 1. These experiments were repeated at least three times with four replicates for each concentration of any given compound (n = 120 cyprids/compound). Stock solutions for all compounds were prepared in methanol (Scharlab, Barcelona, Spain) and serial dilutions were prepared in 0.7 μm (GF/F, GE Healthcare, Little Chalfont, UK), filtered sea water to have a final concentration of 2.5% methanol in each assay solution. Plates were covered and sealed with Parafilm® to avoid evaporation and incubated at 25 °C away from any light source and examined after 24, 48 and 72 h. Each animal was inspected under a stereomicroscope and its condition was recorded. […] Both permanently attached and metamorphosed individuals were counted as settled or juveniles. The remainder were counted as ‘no metamorphosis’, i.e. animals that responded to light touch and were still cyprids at the end of the experiments with no overt signs of metamorphosis.
(§3) For EC50 or IC50 (the concentration that results in 50% stimulation or inhibition relative to the control) calculations in GraphPad Prism v.6, all data were fitted to the curve according to the following models for normalized response: Y = 100/(1 + 10^((X − LogIC50))) or Y = 100/(1 + 10^((LogEC50 − X))) depending on the trend of the curve.

cyprids of A. amphitrite = assay: whole plant or invertebrate; type: in vivo; conditions: for EC50 / IC50: Amphibalanus amphitrite; for EC50: read-out: EC50 No Metamorphosis; for IC50: read-out: IC50 Settlement; for EC50 values for settlement inhibition of barnacle cyprids (in words): consistently, 24-72 h
Description: as §1, §2, §3

A. salina nauplii = assay: Artemia salina toxicity assay; type: in vivo; conditions: in vivo
Description: (§4) The short-term toxicity assay with A. salina nauplii was used to determine the toxicity of secondary metabolites. Hatching of A. salina nauplii was carried out in ASW (35‰) using 0.5 g of cysts incubated in 500 mL seawater at a temperature of 25 ± 1 °C and lateral illumination (1000 Lux). All cysts were kept in continuous suspension with aeration and 24 h later hatched larvae (instar I) were harvested. Toxicity assays were carried out in three independent experiments in 24-well plates with four replicates of each tested concentration. Ten nauplii per well were transferred with a Pasteur pipette into the 24-well plates and each well was filled with 2 mL of ASW and 50 μL of various concentrations of the tested compounds in methanol. Control treatments received 50 μL of methanol. Plates were incubated in the dark at 25 ± 1 °C for 48 h. Mortality was assessed by recording the number of individuals with no movement of their appendages within 10 seconds and is expressed as the percentage of the total number of assessed individuals for each concentration.
as §3

[1] = Artemia salina toxicity assay; type: in vivo; conditions: Artemia salina, in vivo, read-out: EC50 Artemia salina toxicity (mortality)
Description: as §4, §3

[2] = test system: five strains of marine bacteria; assay: Marine bacteria growth assay, positive control (strain not specified); type: cell-based; conditions: 40 μL of 0.5 M per disc
Description: The ability of selected metabolites to inhibit the growth of bacteria was assessed using five strains of marine bacteria involved in marine surface biofilm formation, namely, B. subtilis, B. mojavensis, B. thuringiensis, P. putita and P. pseudoalcaligenes. Bacterial strains were maintained on Zobel marine agar plates. Sterile filter paper discs (4 mm) (GF/F; GE Healthcare, Little Chalfont, UK) were loaded with 40 μL samples of serial dilutions of each tested metabolite, allowed to dry at room temperature and then placed on agar plates (Zobel marine agar, pH = 7.3), which were seeded with a single strain of bacteria. Plates were incubated for 24 h at 25 °C. Marine bacteria growth inhibition was determined by measuring the zone of inhibition in mm around the filter paper disc. As a positive and negative control, standard discs were loaded with 40 μL of 0.5 M penicillin G (2 to 10 mm diameter) or solvent (40 μL methanol), respectively.

Chaetoceros gracilis = Chaetoceros gracilis toxicity (phytoplankton growth) assay; type: cell-based; conditions: 96 h
Description: For phytoplankton growth toxicity assays, the criterion for assay validity was that the cell count of the negative control after 96 h should be ≥2 × 10^5 cells/mL [40].
The centric marine diatom C. gracilis Schütt (strain CCMP1315) was grown photoautotrophically in autoclaved artificial seawater (sea salts; Sigma-Aldrich, St. Louis, MO, USA) (30‰) supplemented with F/2 (half-strength medium f as subsequently modified) in 100 mL medium at 20 °C and with ambient air bubbled in the media. By monitoring cell density, an adjusted culture of >1 × 10^6 cells/mL was used for the toxicity assays. At 96 h, a 0.9 mL aliquot of each treatment was sampled, mixed with 0.1 mL Lugol and cell density was counted. Experiments were assumed valid if cell count in the control after 96 h was […].
as §3

Row | SMILES | LC50 at 24 h (in vivo) | LC50 at 48 h (in vivo) | LC50 at 72 h (in vivo) | EC50 (cyprids of A. amphitrite; 24 h) | IC50 (cyprids of A. amphitrite; 24 h) | EC50 (cyprids of A. amphitrite; 48 h) | IC50 (cyprids of A. amphitrite; 48 h) | EC50 (cyprids of A. amphitrite; 72 h) | IC50 (cyprids of A. amphitrite; 72 h) | EC50 values for settlement inhibition of barnacle cyprids (in words) (cyprids of A. amphitrite) | A. salina exclusion criterion (>10-fold change in EC50 between 24 h and 48 h) (A. salina nauplii) | LC50 at 24 h [1] | LC50 at 48 h [1] | zone of inhibition (diameter) [2] | toxic effect on cyprids (cyprids of A. amphitrite; in vivo) | C. gracilis exclusion criterion (EC50 compared with bromosphaerol) (Chaetoceros gracilis) | EC50 (Chaetoceros gracilis; Chaetoceros neogracilis)
1 | Cc1ccc(C2(C)CCC(=CBr)C2C)c(O)c1 (stereo not drawn) [Compound 4, iso-laurenisol] | 3550 nM | 2980 nM | 2800 nM | 10400 nM | 120 nM | 12400 nM | 180 nM | 5850 nM | 340 nM | sub-micromolar | did not pass this criterion | 21100 nM | 739 nM |  |  |  | 
2 | CC1(C)S[C@@H]2[C@H](NC(=O)Cc3ccccc3)C(=O)N2[C@H]1C(=O)O [penicillin G] |  |  |  |  |  |  |  |  |  |  |  |  |  | 2 to 10 mm |  |  | 
3 | C=C1C[C@H](O)[C@H](Br)C(C)(C)[C@@]12CCC(C)=C(Cl)C2 [Compound 12, elatol] | 327 nM | 194 nM | 61 nM | 396 nM | 89 nM | 250 nM | 73 nM | 66 nM | 42 nM | sub-micromolar | did not pass this criterion | 6590 nM | 373 nM |  | obvious toxic effect on cyprids |  | 
4 | CC1(C(Br)CO)CC=C2C(C1)C(O)CC1C2(C)CCC(Br)C1(C)C (stereo not drawn) [Compound 14, 3,15-dibromo-7,16-dihydroxy-isopimar-9(11)-ene] | 1960 nM | 3610 nM | 3540 nM | 6420 nM | 11 nM | 5150 nM | 65 nM | 7720 nM | 28 nM | sub-micromolar |  | 34200 nM | 15100 nM |  |  | did not pass this criterion | 1610 nM
